# Laboratory results: patent publication US9163256B2, “Mutant receptors and their use in a nuclear receptor-based inducible gene expression system” (priority 2004, dated 2015)
# Read-outs that look alike come from different tables or passages of the source.
# What was measured:
# CfEcR-DEF mutant F109N = CfEcR-DEF mutant F109N (Choristoneura fumiferana, UniProt O77255, F392N); experiment: cell-based; settings: for Emax: NIH3T3, 40 h, read-out: Rel Max FI
# Experimental: (§1) This construct was prepared in the same way as in switch 1.1 above except wild-type CfEcR-DEF was replaced with mutant CfEcR-DEF comprising a ligand binding domain comprising a substitution mutation selected from Table 1 below.
# (§2) DNAs were transfected into mouse NIH3T3 cells (ATCC) as follows. Standard methods for culture and maintenance of the cells were followed. Cells were harvested and plated 96-well plates at 2,500 cells per well, in 50 μL of growth medium containing 10% fetal bovine serum (FBS). Twenty-four hours later, the cells were treated with 35 μL of serum-free growth medium containing either dimethylsulfoxide (DMSO; control) or a DMSO solution of ligand. The cells were then transfected using Superfect (Qiagen Inc.) transfection reagent. For each well, 0.625 μL of Superfect was mixed with 14.2 μL of serum-free growth medium. 0.16 μg of reporter construct and 0.04 μg of each receptor construct were added to the transfection reagent mix. The contents of the transfection mix were mixed in a vortex mixer and let stand at room temperature for 30 minutes. At the end of incubation, 15 μL of transfection mix was added to the cells. The cells were maintained at 37° C. and 5% CO2 for 48 hours in 5% FBS.
# (§3) Reporter Assays: Cells were harvested 40 hours after adding ligands. 125 μL of passive lysis buffer (part of Dual-Luciferase reporter assay system from Promega Corporation) were added to each well of the […] plate. The plates were placed on a rotary shaker for 15 minutes. Twenty μL of lysate were assayed. Luciferase activity was measured using Dual-Luciferase reporter assay system from Promega Corporation following the manufacturer's instructions. Fold induction (FI) activities were calculated by dividing relative light units (“RLU”) in ligand treated cells with RLU in DMSO treated cells (untreated control).
# CfEcR-DEF mutant M125P = CfEcR-DEF mutant M125P (Choristoneura fumiferana, UniProt O77255, M408P); experiment: cell-based; settings: for Emax: NIH3T3, 40 h, read-out: Rel Max FI
# Sequence of CfEcR-DEF mutant M125P (P28702 299-449): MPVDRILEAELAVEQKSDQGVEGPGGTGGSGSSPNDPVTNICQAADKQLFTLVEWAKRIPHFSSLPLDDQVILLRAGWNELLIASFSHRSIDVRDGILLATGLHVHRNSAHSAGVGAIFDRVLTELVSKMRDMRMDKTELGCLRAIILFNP
# Sequence of CfEcR-DEF mutant M125P (O77255 entry or part of it M408P): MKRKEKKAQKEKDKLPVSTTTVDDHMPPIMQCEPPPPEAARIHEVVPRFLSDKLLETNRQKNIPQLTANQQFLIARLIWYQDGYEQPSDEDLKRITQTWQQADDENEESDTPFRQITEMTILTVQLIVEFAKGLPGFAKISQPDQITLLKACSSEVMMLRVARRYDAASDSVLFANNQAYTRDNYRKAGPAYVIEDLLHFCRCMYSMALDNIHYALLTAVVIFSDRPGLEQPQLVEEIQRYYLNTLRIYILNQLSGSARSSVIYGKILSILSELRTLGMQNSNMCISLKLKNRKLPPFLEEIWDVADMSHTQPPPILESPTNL
# Experimental: as §1, §2, §3
# CfEcR-DEF mutant A110N = CfEcR-DEF mutant A110N (Choristoneura fumiferana, UniProt O77255, A393N); experiment: cell-based; parameters: Concentration (mM) at max FI: unit not given here; settings: for Emax: NIH3T3, 40 h, read-out: Rel Max FI
# Sequence of CfEcR-DEF mutant A110N (O77255 entry or part of it A393N): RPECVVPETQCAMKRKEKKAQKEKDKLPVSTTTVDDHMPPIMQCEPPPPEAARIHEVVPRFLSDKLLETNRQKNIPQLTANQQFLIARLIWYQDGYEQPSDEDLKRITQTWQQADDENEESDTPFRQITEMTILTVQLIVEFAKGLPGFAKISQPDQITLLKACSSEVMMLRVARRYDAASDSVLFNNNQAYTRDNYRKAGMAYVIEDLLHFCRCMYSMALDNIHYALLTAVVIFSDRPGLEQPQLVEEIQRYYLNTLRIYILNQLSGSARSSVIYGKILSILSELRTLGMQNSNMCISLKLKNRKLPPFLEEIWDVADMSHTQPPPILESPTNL
# Sequence of CfEcR-DEF mutant A110N (P28702 299-449, stated change not applied, further chain): as the sequence (P28702 299-449) above
# Experimental: as §1, §2, §3
# CfEcR-DEF mutant F109M = CfEcR-DEF mutant F109M (Choristoneura fumiferana, UniProt O77255, F392M); experiment: cell-based; parameters: Concentration (mM) at max FI: unit not given here; settings: for Emax: NIH3T3, 40 h, read-out: Rel Max FI
# Sequence of CfEcR-DEF mutant F109M (O77255 entry or part of it F392M): as the sequence (O77255 entry or part of it A393N) above, with F186M, N187A counted along it
# Sequence of CfEcR-DEF mutant F109M (P28702 299-449, further chain): as the sequence (P28702 299-449) above
# Experimental: as §1, §2, §3
# CfEcR-DEF mutant F48W = CfEcR-DEF mutant F48W (Choristoneura fumiferana, UniProt O77255, F331W); experiment: cell-based; parameters: Concentration (mM) at max FI: unit not given here; settings: for Emax: NIH3T3, 40 h, read-out: Rel Max FI
# Sequence of CfEcR-DEF mutant F48W (P28702 299-449): as above
# Sequence of CfEcR-DEF mutant F48W (O77255 entry or part of it F331W): as the sequence (O77255 entry or part of it A393N) above, with F125W, N187A counted along it
# Experimental: as §1, §2, §3
# CfEcR-DEF mutant F48Y = CfEcR-DEF mutant F48Y (Choristoneura fumiferana, UniProt O77255, F331Y); experiment: cell-based; parameters: Concentration (mM) at max FI: unit not given here; settings: for Emax: NIH3T3, 40 h, read-out: Rel Max FI
# Sequence of CfEcR-DEF mutant F48Y (O77255 entry or part of it F331Y): as the sequence (O77255 entry or part of it A393N) above, with F125Y, N187A counted along it
# Sequence of CfEcR-DEF mutant F48Y (P28702 299-449, further chain): as the sequence (P28702 299-449) above
# Experimental: as §1, §2, §3
# CfEcR-DEF mutant T52P = CfEcR-DEF mutant T52P (Choristoneura fumiferana, UniProt O77255, T335P); experiment: cell-based; parameters: Concentration (mM) at max FI: unit not given here; settings: for Emax: NIH3T3, 40 h, read-out: Rel Max FI
# Sequence of CfEcR-DEF mutant T52P (P28702 298-449): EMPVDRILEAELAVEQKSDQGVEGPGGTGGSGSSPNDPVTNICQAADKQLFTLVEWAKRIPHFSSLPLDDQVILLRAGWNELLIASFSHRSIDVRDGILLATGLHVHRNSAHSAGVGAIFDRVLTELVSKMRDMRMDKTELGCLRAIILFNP
# Sequence of CfEcR-DEF mutant T52P (O77255 entry or part of it T335P): as the sequence (O77255 entry or part of it A393N) above, with T129P, N187A counted along it
# Experimental: as §1, §2, §3
# CfEcR-DEF mutant V128F = CfEcR-DEF mutant V128F (Choristoneura fumiferana, UniProt O77255, V411F); experiment: cell-based; parameters: Concentration (mM) at max FI: unit not given here; settings: for EC50: EC50, mutant V128F; for Emax: NIH3T3, 40 h, read-out: Rel Max FI
# Sequence of CfEcR-DEF mutant V128F (P28702 299-449): as the sequence (P28702 299-449) above
# Sequence of CfEcR-DEF mutant V128F (O77255 entry or part of it V411F): as the sequence (O77255 entry or part of it M408P) above, with P190M, V193F counted along it
# Experimental: as §1, §2, §3
# CfEcR-DEF mutant V96E = CfEcR-DEF mutant V96E (Choristoneura fumiferana, UniProt O77255, V379E); experiment: cell-based; parameters: Concentration (mM) at max FI: unit not given here; settings: for Emax: NIH3T3, 40 h, read-out: Rel Max FI
# Sequence of CfEcR-DEF mutant V96E (O77255 entry or part of it V379E): as the sequence (O77255 entry or part of it M408P) above, with V161E, P190M counted along it
# Sequence of CfEcR-DEF mutant V96E (P28702 299-449, further chain): as the sequence (P28702 299-449) above
# Experimental: as §1, §2, §3
# CfEcR-DEF mutant W238E = CfEcR-DEF mutant W238E (Choristoneura fumiferana, UniProt O77255, W521E); experiment: cell-based; parameters: Concentration (mM) at max FI: unit not given here; settings: for Emax: NIH3T3, 40 h, read-out: Rel Max FI
# Sequence of CfEcR-DEF mutant W238E (P28702 299-449): as above
# Sequence of CfEcR-DEF mutant W238E (O77255 entry or part of it W521E): as the sequence (O77255 entry or part of it M408P) above, with P190M, W303E counted along it
# Experimental: as §1, §2, §3
# CfEcR-DEF mutant Y120M = CfEcR-DEF mutant Y120M (Choristoneura fumiferana, UniProt O77255, Y403M); experiment: cell-based; parameters: Concentration (mM) at max FI: unit not given here; settings: for Emax: NIH3T3, 40 h, read-out: Rel Max FI
# Sequence of CfEcR-DEF mutant Y120M (O77255 entry or part of it Y403M): as the sequence (O77255 entry or part of it M408P) above, with Y185M, P190M counted along it
# Sequence of CfEcR-DEF mutant Y120M (P28702 299-449, further chain): as the sequence (P28702 299-449) above
# Experimental: as §1, §2, §3
# CfEcR-DEF mutant F48N = CfEcR-DEF mutant F48N (Choristoneura fumiferana, UniProt O77255, F331N); experiment: GAL4-driven luciferase reporter assay in NIH3T3 cells; type: cell-based; settings: for Emax: NIH3T3, 40 h, read-out: Rel Max FI
# Sequence of CfEcR-DEF mutant F48N (O77255 entry or part of it F331N): as the sequence (O77255 entry or part of it A393N) above, with F125N, N187A counted along it
# Sequence of CfEcR-DEF mutant F48N (P28702 299-449, further chain): as the sequence (P28702 299-449) above
# Experimental: as §1, §2, §3
# CfEcR-DEF mutant M125W = CfEcR-DEF mutant M125W (Choristoneura fumiferana, UniProt O77255, M408W); experiment: as above; type: cell-based; settings: for Emax: NIH3T3, 40 h, read-out: Rel Max FI
# Sequence of CfEcR-DEF mutant M125W (O77255 entry or part of it M408W): as the sequence (O77255 entry or part of it A393N) above, with N187A, M202W counted along it
# Sequence of CfEcR-DEF mutant M125W (P28702 299-449, further chain): as the sequence (P28702 299-449) above
# Experimental: as §1, §2, §3
# [1] = target: CfEcR-DEF mutant T52V/A110P (Choristoneura fumiferana, UniProt O77255, A393P/T335V); experiment: as above; type: cell-based; settings: for Emax: NIH3T3, 40 h, read-out: Rel Max FI
# Sequence of CfEcR-DEF mutant T52V/A110P (O77255 entry or part of it T335V/A393P): as the sequence (O77255 entry or part of it M408P) above, with T117V, A175P, P190M counted along it
# Sequence of CfEcR-DEF mutant T52V/A110P (P28702 299-449, stated change not applied, further chain): as the sequence (P28702 299-449) above
# Experimental: as §1, §2, §3
# [2] = target: CfEcR-DEF mutant V107I/Y127E/T52V (Choristoneura fumiferana, UniProt O77255, T335V/V390I/Y410E); experiment: as above; type: cell-based; settings: for Emax: NIH3T3, 40 h, read-out: Rel Max FI
# Sequence of CfEcR-DEF mutant V107I/Y127E/T52V (P28702 299-449): as above
# Sequence of CfEcR-DEF mutant V107I/Y127E/T52V (O77255 entry or part of it T335V/V390I/Y410E): as the sequence (O77255 entry or part of it M408P) above, with T117V, V172I, P190M, Y192E counted along it
# Experimental: as §1, §2, §3
# [3] = target: CfEcR-DEF mutant V107I/Y127E/G (Choristoneura fumiferana, UniProt O77255, INS541G/V390I/Y410E); experiment: as above; type: cell-based; settings: for Emax: NIH3T3, 40 h, read-out: Rel Max FI
# Sequence of CfEcR-DEF mutant V107I/Y127E/G (P28702 299-449, stated change not applied): as the sequence (P28702 299-449) above
# Sequence of CfEcR-DEF mutant V107I/Y127E/G (O77255 entry or part of it V390I/Y410E/INS541G): as the sequence (O77255 entry or part of it M408P) above, with P190M counted along it
# Experimental: as §1
# The Gal-4-CfEcR-DEF(VYG) mutant was created by inserting an extra glycine at the C-terminal end of EcR substitution mutant V107I/Y127E [CfECR(VY)] by PCR. Essentially, this was done in two steps: PCR-amplification of CfEcR-DEF(VYG) and substitution of the CfEcR(VY) in the vector GAL4-CfEcR DEF(VY) pBIND 1-9 with the PCR-amplified CfEcR-DEF(VYG). The CfEcR-DEF region (with the extra glycine) was amplified by using the vector GAL4-CfEcR DEF(VY) pBIND 1-9 as template and the following PCR primers: […]
# as §2, §3
# CfEcR-DEF mutant L132M = CfEcR-DEF mutant L132M (Choristoneura fumiferana, UniProt O77255, L415M); experiment: cell-based; type: cell-based; settings: for Emax: NIH3T3, 40 h, read-out: Rel Max FI, mutant L132M
# Sequence of CfEcR-DEF mutant L132M (O77255 entry or part of it L415M): as the sequence (O77255 entry or part of it A393N) above, with N187A, L209M counted along it
# Sequence of CfEcR-DEF mutant L132M (P28702 298-449, further chain): as the sequence (P28702 298-449) above
# Experimental: as §1, §2, §3
# [4] = NIH3T3, mouse, 40 h, read-out: GS-E ligand max FI (relative to DMSO)
# [5] = relative to max fold induction of GS-E ligand
# Sequence of CfEcR-DEF mutant F109N (P28702 299-449): as the sequence (P28702 299-449) above
# Sequence of CfEcR-DEF mutant F109N (O77255 entry or part of it F392N): as the sequence (O77255 entry or part of it A393N) above, with F186N, N187A counted along it
structure (smiles),measurement,setting,value
"CCc1c(OC)cccc1C(=O)NN(C(=O)c1cc(C)cc(C)c1)C(C)(C)C [RG-102240, N-(2-ethyl-3-methoxybenzoyl)-N′-(3,5-dimethylbenzoyl)-N′-tert-butylhydrazine]",EC50,CfEcR-DEF mutant F109N,2700 nM
same,Emax,CfEcR-DEF mutant F109N,100%
same,maximal fold induction,CfEcR-DEF mutant F109N; [4],1510
same,Concentration (mM) at max FI,"CfEcR-DEF mutant F109N; mutant F109N, GS-E ligand",0.0333 mM
same,EC50,CfEcR-DEF mutant M125P,> 33 µM
same,Emax,CfEcR-DEF mutant M125P,100%
same,maximal fold induction,CfEcR-DEF mutant M125P; [4],1
same,Concentration (mM) at max FI,"CfEcR-DEF mutant M125P; mutant M125P, GS-E ligand",0.0333 mM
same,EC50,CfEcR-DEF mutant A110N,1410 nM
same,Emax,CfEcR-DEF mutant A110N,100%
same,maximal fold induction,CfEcR-DEF mutant A110N; [4],1680
same,Concentration (mM) at max FI,"CfEcR-DEF mutant A110N; mutant A110N, GS-E ligand",10.00
same,EC50,CfEcR-DEF mutant F109M,660 nM
same,Emax,CfEcR-DEF mutant F109M,100%
same,maximal fold induction,CfEcR-DEF mutant F109M; [4],1480
same,Concentration (mM) at max FI,"CfEcR-DEF mutant F109M; mutant F109M, GS-E ligand",3.3
same,EC50,CfEcR-DEF mutant F48W,~1000 nM
same,Emax,CfEcR-DEF mutant F48W,100%
same,maximal fold induction,CfEcR-DEF mutant F48W; [4],1640
same,Concentration (mM) at max FI,"CfEcR-DEF mutant F48W; mutant F48W, GS-E ligand",33.3
same,EC50,CfEcR-DEF mutant F48Y,1270 nM
same,Emax,CfEcR-DEF mutant F48Y,100%
same,maximal fold induction,CfEcR-DEF mutant F48Y; [4],1360
same,Concentration (mM) at max FI,"CfEcR-DEF mutant F48Y; mutant F48Y, GS-E ligand",33.3
same,EC50,CfEcR-DEF mutant T52P,~10 µM
same,Emax,CfEcR-DEF mutant T52P,100%
same,maximal fold induction,CfEcR-DEF mutant T52P; [4],301
same,Concentration (mM) at max FI,"CfEcR-DEF mutant T52P; mutant T52P, GS-E ligand",33.3
same,EC50,CfEcR-DEF mutant V128F,> 33 µM
same,Emax,CfEcR-DEF mutant V128F,0%
same,maximal fold induction,CfEcR-DEF mutant V128F; [4],550
same,Concentration (mM) at max FI,"CfEcR-DEF mutant V128F; mutant V128F, GS-E ligand",33.30
same,EC50,CfEcR-DEF mutant V96E,~2000 nM
same,Emax,CfEcR-DEF mutant V96E,100%
same,maximal fold induction,CfEcR-DEF mutant V96E; [4],2960
same,Concentration (mM) at max FI,"CfEcR-DEF mutant V96E; mutant V96E, GS-E ligand",33.30
same,EC50,CfEcR-DEF mutant W238E,~6 µM
same,Emax,CfEcR-DEF mutant W238E,100%
same,maximal fold induction,CfEcR-DEF mutant W238E; [4],1020
same,Concentration (mM) at max FI,"CfEcR-DEF mutant W238E; mutant W238E, GS-E ligand",33.3
same,EC50,CfEcR-DEF mutant Y120M,~4 µM
same,Emax,CfEcR-DEF mutant Y120M,100%
same,maximal fold induction,CfEcR-DEF mutant Y120M; [4],1710
same,Concentration (mM) at max FI,"CfEcR-DEF mutant Y120M; mutant Y120M, GS-E ligand",33.3
same,EC50,CfEcR-DEF mutant F48N,750 nM
same,Emax,CfEcR-DEF mutant F48N,100%
same,EC50,CfEcR-DEF mutant M125W,3.49 µM
same,Emax,CfEcR-DEF mutant M125W,100%
same,EC50,[1],330 nM
same,Emax,[1],100%
same,EC50,[2],60 nM
same,Emax,[2],100%
same,EC50,[3],170 nM
same,Emax,[3],100%
same,Emax,CfEcR-DEF mutant L132M,100%
same,Emax,CfEcR-DEF mutant L132M; [5],100%
same,maximal fold induction,CfEcR-DEF mutant L132M; [4],1520
same,Concentration at max FI,"CfEcR-DEF mutant L132M; mutant L132M, GS-E ligand",10.00 mM
"Cc1cc(C)cc(C(=O)N(NC(=O)c2cccc(C(C)C)c2C)C(C)(C)C)c1 [RG-102362, 3,5-Dimethyl-benzoic acid N-tert-butyl-N′-(3-isopropyl-2-methyl-benzoyl)-hydrazide]",EC50,CfEcR-DEF mutant F109N,1850 nM
same,Emax,CfEcR-DEF mutant F109N,40%
same,EC50,CfEcR-DEF mutant M125P,> 33 µM
same,Emax,CfEcR-DEF mutant M125P,78%
same,EC50,CfEcR-DEF mutant A110N,720 nM
same,Emax,CfEcR-DEF mutant A110N,86%
same,EC50,CfEcR-DEF mutant F109M,820 nM
same,Emax,CfEcR-DEF mutant F109M,60%
same,EC50,CfEcR-DEF mutant F48W,770 nM
same,Emax,CfEcR-DEF mutant F48W,51%
same,EC50,CfEcR-DEF mutant F48Y,590 nM
same,Emax,CfEcR-DEF mutant F48Y,48%
same,EC50,CfEcR-DEF mutant T52P,~6 µM
same,Emax,CfEcR-DEF mutant T52P,11%
same,EC50,CfEcR-DEF mutant V128F,> 33 µM
same,Emax,CfEcR-DEF mutant V128F,234%
same,EC50,CfEcR-DEF mutant V96E,1860 nM
same,Emax,CfEcR-DEF mutant V96E,48%
same,EC50,CfEcR-DEF mutant W238E,3.45 µM
same,Emax,CfEcR-DEF mutant W238E,45%
same,EC50,CfEcR-DEF mutant Y120M,~10 µM
same,Emax,CfEcR-DEF mutant Y120M,13%
same,EC50,CfEcR-DEF mutant F48N,1680 nM
same,Emax,CfEcR-DEF mutant F48N,66%
same,EC50,CfEcR-DEF mutant M125W,3.5 µM
same,Emax,CfEcR-DEF mutant M125W,44%
same,EC50,[1],320 nM
same,Emax,[1],94%
same,EC50,[2],< 10 nM
same,Emax,[2],73%
same,EC50,[3],60 nM
same,Emax,[3],81%
same,Emax,CfEcR-DEF mutant L132M,1%
same,Emax,CfEcR-DEF mutant L132M; [5],66%
